# Measured values: publication PMC6887723, “Design and Synthesis of 4-(Heterocyclic Substituted Amino)-1H-Pyrazole-3-Carboxamide Derivatives and Their Potent Activity against Acute Myeloid Leukemia (AML)” (International Journal of Molecular Sciences, 2019)
# Key:
# Experiment in all cases: Hot-Spot kinase profiling
# Type in all cases: biochemical
# ABL1 = molecular target: T1, ABL1 (Homo sapiens, UniProt P00519); settings: read-out: % Enzyme Activity (Relative to DMSO Controls) ABL1
# T1 construct: purchased Reaction Biology Corp. (HotSpot kinase assay)
# Protocol: (§1) Activities of kinases were determined using Hot-SpotSM kinase assay which was performed by Reaction Biology Corp. (Malvern PA, USA) as described previously.
# FLT3 = molecular target: T2, FLT3 (Homo sapiens, UniProt P36888)
# T2 construct: purchased Reaction Biology Corp
# T2 sequence (P36888 27-993): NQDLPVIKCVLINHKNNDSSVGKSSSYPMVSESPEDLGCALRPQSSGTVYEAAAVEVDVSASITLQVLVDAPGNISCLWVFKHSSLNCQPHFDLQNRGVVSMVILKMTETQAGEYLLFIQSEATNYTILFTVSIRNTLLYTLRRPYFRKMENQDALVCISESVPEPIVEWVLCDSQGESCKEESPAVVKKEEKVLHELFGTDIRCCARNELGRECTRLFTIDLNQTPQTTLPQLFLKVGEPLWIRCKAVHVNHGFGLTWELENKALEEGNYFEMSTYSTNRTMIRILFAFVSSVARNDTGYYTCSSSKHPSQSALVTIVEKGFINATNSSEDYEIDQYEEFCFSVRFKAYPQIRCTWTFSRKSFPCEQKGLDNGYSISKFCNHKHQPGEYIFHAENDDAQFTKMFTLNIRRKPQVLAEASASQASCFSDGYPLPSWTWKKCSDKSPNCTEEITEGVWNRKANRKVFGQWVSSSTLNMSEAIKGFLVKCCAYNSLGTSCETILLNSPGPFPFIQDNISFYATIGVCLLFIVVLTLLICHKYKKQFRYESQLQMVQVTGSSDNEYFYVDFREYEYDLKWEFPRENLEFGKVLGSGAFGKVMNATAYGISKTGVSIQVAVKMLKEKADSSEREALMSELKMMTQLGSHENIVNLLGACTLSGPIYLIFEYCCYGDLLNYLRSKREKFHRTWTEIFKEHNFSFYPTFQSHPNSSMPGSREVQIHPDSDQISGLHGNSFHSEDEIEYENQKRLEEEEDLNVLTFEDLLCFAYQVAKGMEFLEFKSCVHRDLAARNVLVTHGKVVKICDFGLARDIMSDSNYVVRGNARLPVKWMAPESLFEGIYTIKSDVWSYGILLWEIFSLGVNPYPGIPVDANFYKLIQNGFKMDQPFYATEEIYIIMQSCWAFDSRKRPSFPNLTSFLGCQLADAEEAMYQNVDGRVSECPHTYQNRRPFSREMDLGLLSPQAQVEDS
# Protocol: as §1
# CDK9/cyclin K = molecular target: T3, CDK9/cyclin K (Homo sapiens, UniProt P50750)
# T3 construct: purchased Reaction Biology Corp
# T3 sequence (P50750 whole entry): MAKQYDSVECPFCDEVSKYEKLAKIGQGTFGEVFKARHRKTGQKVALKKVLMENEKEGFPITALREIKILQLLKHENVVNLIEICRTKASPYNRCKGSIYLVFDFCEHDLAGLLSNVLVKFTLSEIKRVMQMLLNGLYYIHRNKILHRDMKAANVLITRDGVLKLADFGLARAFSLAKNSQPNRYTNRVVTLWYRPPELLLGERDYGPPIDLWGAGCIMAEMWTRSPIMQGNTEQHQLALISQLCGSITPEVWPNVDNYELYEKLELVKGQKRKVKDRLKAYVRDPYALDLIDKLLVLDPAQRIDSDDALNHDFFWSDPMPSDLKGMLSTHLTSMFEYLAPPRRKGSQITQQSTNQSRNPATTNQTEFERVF
# T3 sequence (O75909 whole entry partner): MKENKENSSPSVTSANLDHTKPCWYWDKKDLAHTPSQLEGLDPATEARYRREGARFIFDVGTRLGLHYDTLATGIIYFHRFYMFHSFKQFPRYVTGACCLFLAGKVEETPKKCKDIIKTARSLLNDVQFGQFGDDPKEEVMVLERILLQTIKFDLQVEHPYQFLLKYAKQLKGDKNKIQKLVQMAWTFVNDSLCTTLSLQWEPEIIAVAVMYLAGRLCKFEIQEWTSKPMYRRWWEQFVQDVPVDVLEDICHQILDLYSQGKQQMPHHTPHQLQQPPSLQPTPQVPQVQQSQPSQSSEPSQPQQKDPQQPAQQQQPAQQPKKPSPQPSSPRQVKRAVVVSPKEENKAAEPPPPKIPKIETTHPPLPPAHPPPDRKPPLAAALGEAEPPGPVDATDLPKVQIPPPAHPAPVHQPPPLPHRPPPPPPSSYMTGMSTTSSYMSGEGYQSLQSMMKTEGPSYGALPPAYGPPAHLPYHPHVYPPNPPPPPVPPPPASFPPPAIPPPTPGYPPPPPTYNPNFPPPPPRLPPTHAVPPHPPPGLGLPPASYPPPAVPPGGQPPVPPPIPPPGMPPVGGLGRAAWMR
# Protocol: as §1
# KDR/VEGFR2 = molecular target: T4, KDR/VEGFR2 (Homo sapiens, UniProt P35968)
# T4 construct: purchased Reaction Biology Corp. (Malvern PA, USA)
# Protocol: as §1
# ERK7/MAPK15 = molecular target: T5, ERK7/MAPK15 (Homo sapiens, UniProt Q8TD08)
# T5 construct: purchased Reaction Biology Corp
# T5 sequence (Q8TD08 whole entry): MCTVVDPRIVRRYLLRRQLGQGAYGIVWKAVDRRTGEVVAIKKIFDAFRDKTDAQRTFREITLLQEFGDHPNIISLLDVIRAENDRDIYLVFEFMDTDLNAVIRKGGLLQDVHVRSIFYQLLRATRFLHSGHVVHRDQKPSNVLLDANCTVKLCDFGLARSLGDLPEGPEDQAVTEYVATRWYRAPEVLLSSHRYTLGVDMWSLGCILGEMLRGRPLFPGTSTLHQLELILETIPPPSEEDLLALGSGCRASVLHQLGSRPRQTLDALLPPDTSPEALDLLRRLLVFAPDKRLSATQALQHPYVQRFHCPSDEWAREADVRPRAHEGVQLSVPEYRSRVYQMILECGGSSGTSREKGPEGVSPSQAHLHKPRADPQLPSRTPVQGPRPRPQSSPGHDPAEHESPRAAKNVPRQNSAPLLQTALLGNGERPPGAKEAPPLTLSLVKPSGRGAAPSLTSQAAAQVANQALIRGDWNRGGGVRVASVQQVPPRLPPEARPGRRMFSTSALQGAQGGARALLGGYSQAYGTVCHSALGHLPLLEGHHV
# Protocol: as §1
# c-Src = molecular target: T6, c-Src (Homo sapiens, UniProt P12931); settings: read-out: % Enzyme Activity (Relative to DMSO Controls) c-Src
# T6 construct: purchased Reaction Biology Corp. (HotSpot kinase assay)
# Protocol: as §1
# c-MET = molecular target: T7, c-MET (Homo sapiens, UniProt P08581); settings: read-out: % Enzyme Activity (Relative to DMSO Controls) c-MET
# T7 construct: purchased Reaction Biology Corp. (HotSpot kinase assay)
# Protocol: as §1
# FMS = molecular target: T8, FMS (Homo sapiens, UniProt P07333); settings: read-out: % Enzyme Activity (Relative to DMSO Controls) FMS
# T8 construct: purchased Reaction Biology Corp
# Protocol: as §1
# ALK = molecular target: T9, ALK (Homo sapiens, UniProt Q9UM73); settings: read-out: % Enzyme Activity (Relative to DMSO Controls) ALK
# T9 construct: purchased Reaction Biology Corp. (HotSpot kinase assay)
# Protocol: as §1
# GSK3β = molecular target: T10, GSK3β (Homo sapiens, UniProt P49841)
# T10 construct: purchased Reaction Biology Corp
# Protocol: as §1
# AKT1 = molecular target: T11, AKT1 (Homo sapiens, UniProt P31749); settings: read-out: % Enzyme Activity (Relative to DMSO Controls) AKT1
# T11 construct: purchased Reaction Biology Corp. (HotSpot kinase assay)
# Protocol: as §1
# CDK1/cyclin B = molecular target: T12, CDK1/cyclin B (Homo sapiens, UniProt P06493)
# T12 construct: purchased Reaction Biology Corp
# T12 sequence (P06493 whole entry): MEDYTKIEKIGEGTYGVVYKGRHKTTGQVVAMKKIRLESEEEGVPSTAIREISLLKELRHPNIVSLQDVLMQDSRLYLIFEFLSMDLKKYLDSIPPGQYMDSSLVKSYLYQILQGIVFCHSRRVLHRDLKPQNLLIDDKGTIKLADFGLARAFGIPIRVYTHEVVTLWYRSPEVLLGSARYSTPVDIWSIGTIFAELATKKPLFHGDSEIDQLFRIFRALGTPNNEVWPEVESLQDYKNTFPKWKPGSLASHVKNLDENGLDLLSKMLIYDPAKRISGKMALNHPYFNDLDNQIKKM
# T12 sequence (P14635 whole entry partner): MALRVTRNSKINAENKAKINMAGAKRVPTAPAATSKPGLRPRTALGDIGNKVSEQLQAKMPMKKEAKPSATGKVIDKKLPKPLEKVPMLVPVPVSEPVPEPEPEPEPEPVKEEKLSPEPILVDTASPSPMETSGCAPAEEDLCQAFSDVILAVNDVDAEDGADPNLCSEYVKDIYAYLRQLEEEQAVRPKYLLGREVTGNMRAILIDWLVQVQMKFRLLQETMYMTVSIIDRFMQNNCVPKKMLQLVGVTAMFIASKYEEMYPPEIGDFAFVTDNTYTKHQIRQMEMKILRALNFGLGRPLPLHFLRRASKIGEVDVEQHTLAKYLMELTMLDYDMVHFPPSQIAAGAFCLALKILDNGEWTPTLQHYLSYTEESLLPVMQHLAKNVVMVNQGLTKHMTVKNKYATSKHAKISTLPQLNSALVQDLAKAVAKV
# Protocol: as §1
# [1] = molecular target: T13, FLT3 (Y591-V592insVDFREYEYD) (Homo sapiens, UniProt P36888, INS591VDFREYEYD)
# T13 construct: purchased Reaction Biology Corp
# T13 sequence (P36888 with tags, fused parts or gaps with the stated changes limits assumed): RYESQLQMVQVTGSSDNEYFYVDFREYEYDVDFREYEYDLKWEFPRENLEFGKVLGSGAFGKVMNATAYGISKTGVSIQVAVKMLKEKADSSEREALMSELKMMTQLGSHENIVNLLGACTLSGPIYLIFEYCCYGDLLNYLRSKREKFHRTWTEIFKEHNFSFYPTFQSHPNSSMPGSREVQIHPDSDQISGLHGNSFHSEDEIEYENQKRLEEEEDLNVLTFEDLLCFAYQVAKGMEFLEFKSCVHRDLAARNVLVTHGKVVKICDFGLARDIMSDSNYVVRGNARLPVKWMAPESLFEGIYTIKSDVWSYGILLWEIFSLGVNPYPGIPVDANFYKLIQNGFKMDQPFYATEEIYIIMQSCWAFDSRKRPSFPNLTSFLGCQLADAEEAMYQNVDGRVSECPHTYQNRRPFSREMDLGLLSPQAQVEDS
# Protocol: as §1
# CDK4/cyclin D1 = molecular target: T14, CDK4/cyclin D1 (Homo sapiens, UniProt P11802)
# T14 construct: purchased Reaction Biology Corp
# Protocol: as §1
# CDK5/p35 = molecular target: T15, CDK5/p35 (Homo sapiens, UniProt Q00535)
# T15 construct: purchased Reaction Biology Corp
# T15 sequence (Q00535 whole entry): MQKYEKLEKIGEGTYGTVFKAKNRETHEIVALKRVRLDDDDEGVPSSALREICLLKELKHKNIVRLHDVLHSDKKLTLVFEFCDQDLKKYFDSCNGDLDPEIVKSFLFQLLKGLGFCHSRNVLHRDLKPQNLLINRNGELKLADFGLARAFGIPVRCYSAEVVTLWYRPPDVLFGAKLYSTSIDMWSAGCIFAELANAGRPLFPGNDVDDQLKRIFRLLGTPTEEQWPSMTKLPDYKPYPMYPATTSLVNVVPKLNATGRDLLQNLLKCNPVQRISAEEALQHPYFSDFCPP
# T15 sequence (Q15078 whole entry partner): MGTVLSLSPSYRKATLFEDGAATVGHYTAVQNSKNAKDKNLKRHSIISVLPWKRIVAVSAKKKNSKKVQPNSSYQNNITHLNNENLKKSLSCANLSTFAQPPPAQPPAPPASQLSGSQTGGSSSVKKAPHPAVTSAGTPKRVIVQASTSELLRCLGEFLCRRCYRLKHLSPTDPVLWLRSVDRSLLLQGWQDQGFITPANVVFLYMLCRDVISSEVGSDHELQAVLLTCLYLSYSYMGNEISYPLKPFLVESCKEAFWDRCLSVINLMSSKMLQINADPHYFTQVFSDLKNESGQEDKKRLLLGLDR
# Protocol: as §1
# CDK2/cyclin A = molecular target: T16, CDK2/cyclin A (Homo sapiens, UniProt P24941)
# T16 construct: purchased Reaction Biology Corp
# Protocol: as §1
# FLT4/VEGFR3 = molecular target: T17, FLT4/VEGFR3 (Homo sapiens, UniProt P35916)
# T17 construct: purchased Reaction Biology Corp
# T17 sequence (P35916 25-1363): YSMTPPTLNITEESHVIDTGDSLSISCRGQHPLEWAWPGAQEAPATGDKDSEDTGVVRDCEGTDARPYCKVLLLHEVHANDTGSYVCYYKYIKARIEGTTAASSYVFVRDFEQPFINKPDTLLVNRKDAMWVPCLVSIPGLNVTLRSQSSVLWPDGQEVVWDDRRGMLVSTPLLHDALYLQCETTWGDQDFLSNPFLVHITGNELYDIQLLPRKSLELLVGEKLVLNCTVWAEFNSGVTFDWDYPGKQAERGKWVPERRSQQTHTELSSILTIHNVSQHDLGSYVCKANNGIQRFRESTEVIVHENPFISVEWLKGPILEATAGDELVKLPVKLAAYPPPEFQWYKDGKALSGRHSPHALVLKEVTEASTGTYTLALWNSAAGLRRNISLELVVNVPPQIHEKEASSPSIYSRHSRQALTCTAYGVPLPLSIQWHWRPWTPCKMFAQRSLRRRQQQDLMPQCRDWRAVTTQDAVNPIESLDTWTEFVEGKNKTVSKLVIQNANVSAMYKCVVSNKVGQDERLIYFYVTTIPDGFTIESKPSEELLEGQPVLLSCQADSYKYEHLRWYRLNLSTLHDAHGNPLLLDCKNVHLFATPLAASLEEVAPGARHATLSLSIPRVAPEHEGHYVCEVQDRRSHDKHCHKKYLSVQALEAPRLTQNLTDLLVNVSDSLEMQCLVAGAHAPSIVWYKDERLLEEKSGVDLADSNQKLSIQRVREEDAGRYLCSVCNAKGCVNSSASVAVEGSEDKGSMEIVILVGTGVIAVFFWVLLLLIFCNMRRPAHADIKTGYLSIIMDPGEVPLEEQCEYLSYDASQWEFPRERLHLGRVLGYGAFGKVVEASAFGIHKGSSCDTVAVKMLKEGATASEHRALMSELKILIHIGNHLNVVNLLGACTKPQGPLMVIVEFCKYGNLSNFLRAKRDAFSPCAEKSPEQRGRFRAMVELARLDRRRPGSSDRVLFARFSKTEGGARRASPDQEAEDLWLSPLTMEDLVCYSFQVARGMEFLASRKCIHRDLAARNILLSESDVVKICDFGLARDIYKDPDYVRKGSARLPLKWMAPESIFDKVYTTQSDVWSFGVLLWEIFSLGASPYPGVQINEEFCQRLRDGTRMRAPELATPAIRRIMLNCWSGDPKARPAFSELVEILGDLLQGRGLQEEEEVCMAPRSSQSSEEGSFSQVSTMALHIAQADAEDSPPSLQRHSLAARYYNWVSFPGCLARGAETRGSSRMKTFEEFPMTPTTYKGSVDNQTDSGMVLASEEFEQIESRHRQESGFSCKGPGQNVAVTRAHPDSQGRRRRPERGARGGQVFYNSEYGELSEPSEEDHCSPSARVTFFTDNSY
# Protocol: as §1
# ALK1/ACVR1 = settings: 0.15 μM
# Protocol: as §1
smiles,measurement,setting,value
O=C(Nc1ccc(N2CCNCC2)cc1)c1n[nH]cc1Nc1ncnc2sc3c(c12)CCC3 [Compound 8t],remaining activity at 0.15 µM,ABL1,81%
same,remaining activity at 0.15 µM,"FLT3; 0.15 μM, read-out: % Enzyme Activity (Relative to DMSO Controls) FLT3",0.01%
same,IC50,FLT3; Table 5 kinase profiling,0.035 ± 0.01 nM
same,remaining activity at 0.15 µM,"CDK9/cyclin K; 0.15 μM, read-out: % Enzyme Activity (Relative to DMSO Controls) CDK9/cyclin K",7.2%
same,IC50,CDK9/cyclin K; Table 5 kinase profiling,14.2 ± 0.82 nM
same,remaining activity at 0.15 µM,"KDR/VEGFR2; 0.15 μM, read-out: % Enzyme Activity (Relative to DMSO Controls) KDR/VEGFR2",7.29%
same,IC50,KDR/VEGFR2; Table 5 kinase profiling,8.32 ± 0.54 nM
same,remaining activity at 0.15 µM,"ERK7/MAPK15; 0.15 μM, read-out: % Enzyme Activity (Relative to DMSO Controls) ERK7/MAPK15",2.96%
same,IC50,ERK7/MAPK15; Table 5 kinase profiling,9.57 ± 0.23 nM
same,remaining activity at 0.15 µM,c-Src,73.8%
same,remaining activity at 0.15 µM,c-MET,99%
same,remaining activity at 0.15 µM,FMS,63%
same,remaining activity at 0.15 µM,ALK,16.6%
same,remaining activity at 0.15 µM,"GSK3β; 0.15 μM, read-out: % Enzyme Activity (Relative to DMSO Controls) GSK3b",8.65%
same,IC50,GSK3β; Table 5 kinase profiling,12 ± 1.2 nM
same,remaining activity at 0.15 µM,AKT1,122%
same,remaining activity at 0.15 µM,"CDK1/cyclin B; 0.15 μM, read-out: % Enzyme Activity (Relative to DMSO Controls) CDK1/cyclin B",18.2%
same,IC50,CDK1/cyclin B; Table 5 kinase profiling,138 ± 1.24 nM
same,IC50,"[1]; Table 5 kinase profiling, read-out: IC50 FLT3 (Y591-V592ins[…])",0.66 ± 0.08 nM
same,remaining activity at 0.15 µM,"[1]; read-out: % Enzyme Activity (Relative to DMSO Controls) FLT3 (Y591-V592insVDFREYEYD), 0.15 μM, read-out: % Enzyme Activity (Relative to DMSO Controls) FLT3 (Y591-V592ins[…])",0.54%
same,remaining activity at 0.15 µM,"CDK4/cyclin D1; 0.15 μM, read-out: % Enzyme Activity (Relative to DMSO Controls) CDK4/cyclin D1",1.56%
same,IC50,CDK4/cyclin D1; Table 5 kinase profiling,0.78 ± 0.04 nM
same,remaining activity at 0.15 µM,"CDK5/p35; 0.15 μM, read-out: % Enzyme Activity (Relative to DMSO Controls) CDK5/p35",9.6%
same,IC50,CDK5/p35; Table 5 kinase profiling,9.64 ± 0.81 nM
same,remaining activity at 0.15 µM,"CDK2/cyclin A; 0.15 μM, read-out: % Enzyme Activity (Relative to DMSO Controls) CDK2/cyclin A",4.01%
same,IC50,CDK2/cyclin A; Table 5 kinase profiling,2.56 ± 0.31 nM
same,remaining activity at 0.15 µM,"FLT4/VEGFR3; 0.15 μM, read-out: % Enzyme Activity (Relative to DMSO Controls) FLT4/VEGFR3",3.62%
same,IC50,FLT4/VEGFR3; Table 5 kinase profiling,4.16 ± 0.19 nM
same,% Enzyme Activity (Relative to DMSO Controls) ALK1/ACVR1,ALK1/ACVR1,57.96%
